Among the test systems are MDA-N; HOP-18 NSCLC; M19-MEL melanoma; LXFL 529 NSCLC; BT-549 breast; MCF7 breast; SNB-78 CNS.
Assay in all cases: NCI-60 cell line screen, 48 h

“And” between values parts separate entries of the source, which are not always exact repeats. Equal values may be shown once.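 Tested at 5 concentrations; 48 h exposure; 96-well plates; endpoints linearly interpolated, else capped at highest concentration. At the GI50, growth is halved. Definition used: TGI = concentration required for complete inhibition of growth.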 Some results are limits rather than exact numbers.

For the molecule `CC1OC(n2cc(F)c(=O)[nH]c2=O)CCC1O` (stereo not drawn), the TGI with MDA-N is over 100 µM; in the experiment on HOP-18 NSCLC it was over 100 µM; in the experiment on M19-MEL melanoma, over 100 µM; in the experiment on LXFL 529 NSCLC, over 100 µM; in the experiment on BT-549 breast it was over 100 µM; in the experiment on MCF7 breast it was over 72.3 µM. In the experiment with SNB-78 CNS, the TGI was over 100 µM.

Regarding `O=C1C=CC(=Nc2ccc3c(c2)C(Br)c2ccccc2-3)O1` (stereo not drawn), the TGI in the experiment with M19-MEL melanoma, in the experiment on LXFL 529 NSCLC and in the experiment with SNB-78 CNS was over 100 µM throughout.

Consider `O=C(CI)NC1Oc2ccccc2-c2oc(=O)c(-c3ccccc3)cc21` (stereo not drawn), for which, in the experiment on BT-549 breast, the GI50 is 1.7 µM and the TGI is 3.24 µM.

Take `N#C/C(=C1C=C/C(=N/O)C(Br)=C/1)c1ccccc1`: in the experiment with BT-549 breast, the GI50 was 9.59 µM and the TGI stood at 27.3 µM. Further, in the experiment with MCF7 breast, the GI50 was 0.323 µM and the TGI was found to be 11.3 µM.

`Cn1c(N2NC(=O)C(N=Nc3ccc(S(N)(=O)=O)cc3)C2=O)nc(-c2ccco2)c(C#N)c1=O` (stereo not drawn): the GI50 is 8.67 µM in the experiment on BT-549 breast and 14.7 µM with MCF7 breast. Also, the TGI in the experiment with BT-549 breast is 40.6 µM; in the experiment on MCF7 breast, over 50 µM.

Take `CCOC(=O)CCc1cc(=O)oc2cc(O)cc(O)c12`: the TGI in the experiment with MDA-N, in the experiment with BT-549 breast and in the experiment with MCF7 breast was over 100 µM throughout.

Turning to `CC[CH2][Pb]([CH2]CC)([CH2]CC)[O]C(=O)C(F)(F)F`, in the experiment on BT-549 breast, the GI50 was 0.222 µM and the TGI is 0.707 µM.

Turning to `C=C(CN1CCc2ccccc2C1)c1ccc(C(=O)Nc2cnccn2)cc1`, in the experiment with MCF7 breast, the GI50 is over 100 µM and the TGI was over 100 µM.

For `C[C@]12CC[C@H](O)CC1=CC[C@@H]1[C@@H]2CC[C@]2(C)C(c3cccnc3)=CC[C@@H]12`, in the experiment on BT-549 breast, the GI50 was 21.7 µM and the TGI is over 100 µM. In addition, in the experiment on MCF7 breast, the GI50 was over 100 µM and the TGI is over 100 µM.

In the case of `Cc1c(C(=O)N/N=C/c2ccc(Cl)cc2)nnn1-c1ccnc2c(C(F)(F)F)cccc12`, in the experiment with BT-549 breast, the GI50 was 22.9 µM and the TGI was 52.3 µM. Further, in the experiment with MCF7 breast, the GI50 was 2.27 µM and the TGI amounted to 5.61 µM.

With `O=C(NCCOCCOCCNc1cccc2c1C(=O)N(C1CCCNC1=O)C2=O)c1cc2c(o1)C(=O)c1ccccc1C2=O` (stereo not drawn), the GI50 with BT-549 breast was 1.59 µM; in the experiment with MCF7 breast, 1.25 µM. The figures for the TGI in the experiment on BT-549 breast and with MCF7 breast were 2.98 µM and 3.21 µM, respectively.

On to `COc1cccc(-c2cc(=O)c3cc(N(C)C)ccc3[nH]2)c1`, for which, in the experiment on MDA-N, the GI50 was 0.00154 µM; the TGI was 0.00774 µM and 0.00529 µM.

In the case of `CCOC(=O)/C=C(/C(=O)OCC)n1cc(Cl)c(=O)n(CC(=O)OCC)c1=O`, in the experiment on MDA-N, the GI50 is 16.4 µM. For the same molecule, the TGI was 11.9 µM and 31.4 µM in the experiment with MDA-N; 10.6 µM and 37.8 µM with BT-549 breast; 46.3 µM in the experiment with MCF7 breast.

For the molecule `CCNCCNc1cc(-c2ccc(C(=O)OC)cc2)c(C#N)c2nc3ccccc3n12`, in the experiment on MCF7 breast, the GI50 was 1.52 µM and the TGI is over 100 µM.

For `O=C(Nc1ccc(N2CCNCC2)cc1)c1[nH]ncc1Nc1cc(Oc2ccccc2)ncn1`, in the experiment on BT-549 breast, the GI50 was 1.84 µM and the TGI was determined as 3.58 µM. For the same molecule, in the experiment with MCF7 breast, the GI50 is 1.28 µM and the TGI was found to be 4.07 µM.

For `Cc1ccc2c(c1)C(=O)/C(=C/c1ncc([N+](=O)[O-])n1C)O2`, in the experiment on BT-549 breast, the GI50 was 1.95 µM and the TGI was determined as 5.48 µM. In addition, in the experiment on MCF7 breast, the GI50 is 0.534 µM and the TGI was determined as 9.88 µM.

Take `CC1=C(C(=O)Nc2ccc([N+](=O)[O-])cc2)C(c2ccc(N(C)C)cc2)C(C(=O)Nc2ccc([N+](=O)[O-])cc2)=C(C)N1`: the TGI in the experiment on M19-MEL melanoma was 33.2 µM; in the experiment on LXFL 529 NSCLC, 71.4 µM; in the experiment on SNB-78 CNS, over 100 µM.

Consider `Cc1cc(I)cc(CNCCCN2CCSCC2)c1O`, for which, in the experiment with BT-549 breast, the GI50 is 5.6 µM and the TGI stood at 20.2 µM. In addition, in the experiment with MCF7 breast, the GI50 was 15.1 µM and the TGI worked out at 31.6 µM.

As for `O=C1NNC=Nc2ccc(cc2)S(=O)(=O)c2ccc(cc2)N=CNNC1=O`, the TGI in the experiment with MDA-N, with BT-549 breast and in the experiment on MCF7 breast was over 100 µM throughout.

Consider `O=NN(Cc1ccc(Cl)cc1)C(C(=O)O)c1ccccc1` (stereo not drawn), for which the TGI in the experiment on MDA-N, in the experiment with BT-549 breast and with MCF7 breast was over 100 µM in each case.

Consider `COc1ccc(C2=NN(C(=O)c3cc(OC)c(OC)c(OC)c3)C(c3ccc(C#N)cc3)C2)cc1OC` (stereo not drawn), for which, in the experiment on BT-549 breast, the GI50 was 2.98 µM and the TGI was over 33.1 µM. Besides, in the experiment with MCF7 breast, the GI50 is 0.512 µM and the TGI was over 88.9 µM.

With `Cn1cc(-c2cnc3ccc(NC(=O)Nc4ccc(F)c(Br)c4)cc3n2)cn1`, in the experiment with BT-549 breast, the GI50 is 1.51 µM and the TGI turned out to be 3.24 µM.

In the case of `O=C(O)CCCCC(CCSCc1ccccc1)SCc1ccccc1` (stereo not drawn), the GI50 is 50.8 µM in the experiment with BT-549 breast and 58.8 µM in the experiment with MCF7 breast. Also, the TGI in the experiment with BT-549 breast and in the experiment on MCF7 breast was over 100 µM in each case.

`CC1CCC2(C(=O)O)CCC3(C)C(=CCC4C5(C)CC(O)C(O)C(C)(CO)C5C(O)CC43C)C2C1C` (stereo not drawn): the TGI in the experiment with MDA-N was over 57.6 µM; in the experiment on BT-549 breast it was over 93.5 µM; with MCF7 breast, over 100 µM.

Regarding `CC(C)CC(=O)[O-].CC(C)CC(=O)[O-].N.N.N.N.[Co+3].[O-][Cl+3]([O-])([O-])[O-]`, in the experiment with LXFL 529 NSCLC, the GI50 is over 100 µM and the TGI was over 100 µM. Also, in the experiment with SNB-78 CNS, the GI50 was over 100 µM and the TGI is over 100 µM.

In the case of `Cc1ccc(-c2c3c([nH]c(=O)c2C#N)-c2cc(F)ccc2OC3)cc1`, in the experiment with MCF7 breast, the GI50 was 52.7 µM and the TGI was over 100 µM.

For `O=C1c2cccc(NCCN=Cc3cc(O)ccc3O)c2C(=O)c2c(NCCN=Cc3cc(O)ccc3O)cccc21`, in the experiment with BT-549 breast, the GI50 is 1.89 µM and the TGI was found to be 7.77 µM.

As to `CC1=C(C(=O)Nc2ccc3[nH]ncc3c2)C(c2ccc3ccccc3c2)CC(=O)N1` (stereo not drawn), in the experiment with BT-549 breast, the GI50 was 4.11 µM and the TGI was over 25 µM. Besides, in the experiment on MCF7 breast, the GI50 was 24.4 µM and the TGI is over 25 µM.

The record behind these values is PubChem BioAssay (NCI).
